Measured values: ChEMBL document CHEMBL1201862, “PubChem BioAssay data set” (2004)
The source made the active and inactive calls. For most assays here, no stated cut-off is given here; in the data, actives have a measured EC50 and inactives only a lower limit.

Legend:
Streptococcus = experiment: Group A Streptococcus viability loss, dose response, counter-screen for streptokinase expression inhibitor project, luminescence, BacTiterGlo (AID 1915); assay type: functional, organism-based;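 further: potency for reduction of bacterial viability or growth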
Streptokinase A = biological target: T1, Streptokinase A (Streptococcus pyogenes serotype M1, UniProt P10520); experiment: S. pyogenes streptokinase expression inhibitors, potency, dose response, plasminogen activation absorbance, OD405 (AID 1914); assay type: functional, Streptococcus pyogenes M1 GAS;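 further: secreted streptokinase activity via plasminogen activation per viability signal from cell pellet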
T1 sequence (P10520 whole entry): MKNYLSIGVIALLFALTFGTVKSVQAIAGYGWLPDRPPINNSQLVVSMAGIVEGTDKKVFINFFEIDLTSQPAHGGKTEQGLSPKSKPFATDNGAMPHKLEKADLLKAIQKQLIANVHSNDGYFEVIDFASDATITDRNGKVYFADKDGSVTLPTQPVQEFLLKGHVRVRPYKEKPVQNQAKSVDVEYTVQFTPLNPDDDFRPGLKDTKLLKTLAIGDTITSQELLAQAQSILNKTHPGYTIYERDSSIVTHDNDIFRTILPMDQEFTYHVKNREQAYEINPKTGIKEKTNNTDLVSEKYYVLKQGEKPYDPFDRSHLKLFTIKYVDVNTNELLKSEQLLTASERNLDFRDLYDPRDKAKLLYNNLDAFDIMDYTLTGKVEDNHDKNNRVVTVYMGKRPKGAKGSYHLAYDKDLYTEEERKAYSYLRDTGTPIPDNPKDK

[1] = biological target: T2, Zinc finger protein mex-5 (Caenorhabditis elegans, UniProt Q9XUB2); experiment: MEX-5/TCR-2 RNA interaction inhibitors, dose response, biochemical, C. elegans, fluorescence polarization (AID 1960)
T2 sequence (Q9XUB2 whole entry): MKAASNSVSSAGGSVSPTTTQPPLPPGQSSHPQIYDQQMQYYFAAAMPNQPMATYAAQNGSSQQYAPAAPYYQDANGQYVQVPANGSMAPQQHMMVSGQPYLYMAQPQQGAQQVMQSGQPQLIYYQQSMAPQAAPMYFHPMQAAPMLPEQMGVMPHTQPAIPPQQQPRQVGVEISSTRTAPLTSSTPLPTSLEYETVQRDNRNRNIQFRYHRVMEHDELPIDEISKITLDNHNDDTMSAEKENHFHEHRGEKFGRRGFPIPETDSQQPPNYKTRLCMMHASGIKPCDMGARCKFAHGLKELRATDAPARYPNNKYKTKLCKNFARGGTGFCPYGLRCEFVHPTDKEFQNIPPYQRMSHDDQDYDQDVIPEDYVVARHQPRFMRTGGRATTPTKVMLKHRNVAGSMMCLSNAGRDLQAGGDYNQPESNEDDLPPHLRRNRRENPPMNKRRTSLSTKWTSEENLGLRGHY

[2] = biological target: T3, RNA-binding protein pos-1 (Caenorhabditis elegans, UniProt G5EF15); experiment: inhibitors of POS-1/mex-3 RNA binding, dose response, biochemical, fluorescence polarization (AID 1964);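 further: purified POS-1 fused to maltose binding protein made in E. coli; potency of compounds blocking POS-1 binding to fluorescent RNA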
T3 sequence (G5EF15 whole entry): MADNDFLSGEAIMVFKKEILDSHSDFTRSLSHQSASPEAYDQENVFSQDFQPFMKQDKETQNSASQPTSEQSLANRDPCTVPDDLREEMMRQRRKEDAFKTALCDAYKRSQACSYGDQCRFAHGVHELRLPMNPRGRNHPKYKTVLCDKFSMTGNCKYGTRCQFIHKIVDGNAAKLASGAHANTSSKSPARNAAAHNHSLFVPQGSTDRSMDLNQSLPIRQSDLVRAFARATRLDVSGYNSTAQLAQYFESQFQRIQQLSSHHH

[3] = system: Streptococcus sp. 'group A'; experiment: growth inhibition of control SK(-) GAS strain, dose response, counter-screen for streptokinase expression inhibitor project, luminescence, kanamycin, BacTiterGlo, confirmation (AID 1900); assay type: functional, organism-based
cells = assay type: functional
[4] = biological target: T4, Corticotropin-releasing factor receptor 2/Corticotropin-releasing factor-binding protein (Homo sapiens, UniProt P24387+Q13324); experiment: activators of CRF receptor 2 with binding protein – uHTS hits, confirmation (AID 602473); assay type: functional; details: read-out: EC50_Mean
T4 sequence (Q13324 whole entry): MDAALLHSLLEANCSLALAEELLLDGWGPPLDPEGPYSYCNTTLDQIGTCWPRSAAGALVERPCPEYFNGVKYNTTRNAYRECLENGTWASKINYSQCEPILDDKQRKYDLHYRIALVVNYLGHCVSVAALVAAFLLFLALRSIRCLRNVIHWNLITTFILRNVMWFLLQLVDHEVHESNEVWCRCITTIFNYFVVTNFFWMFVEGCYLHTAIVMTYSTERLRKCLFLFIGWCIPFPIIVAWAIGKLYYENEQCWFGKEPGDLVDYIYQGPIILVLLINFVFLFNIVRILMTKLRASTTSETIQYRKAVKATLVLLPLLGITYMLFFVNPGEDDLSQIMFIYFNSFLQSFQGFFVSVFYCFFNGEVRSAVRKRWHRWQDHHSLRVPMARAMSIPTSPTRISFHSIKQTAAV
T4 sequence (P24387 whole entry): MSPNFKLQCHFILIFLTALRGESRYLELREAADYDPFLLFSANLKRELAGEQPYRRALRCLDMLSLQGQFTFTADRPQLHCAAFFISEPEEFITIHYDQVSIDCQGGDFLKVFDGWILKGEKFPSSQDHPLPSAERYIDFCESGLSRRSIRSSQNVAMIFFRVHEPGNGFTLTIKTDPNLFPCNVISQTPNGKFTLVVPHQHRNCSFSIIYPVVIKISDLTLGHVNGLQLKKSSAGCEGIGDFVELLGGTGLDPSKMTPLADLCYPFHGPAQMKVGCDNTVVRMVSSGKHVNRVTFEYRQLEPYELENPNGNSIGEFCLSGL

[5] = inhibitors of intracellular T. cruzi replication, confirmation, NIH3T3 host cells, beta-gal luminescence (AID 2044); assay type: functional, cell-based;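 further: intracellular parasites grown in NIH/3T3 mouse fibroblasts as host cells; luminescent beta-galactosidase reporter signal from transgenic T. cruzi replicating inside host cells; inhibitors lower the luminescence signal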
[6] = cytotoxicity toward NIH3T3 fibroblasts, dose response, counter-screen, cell-based, ATP luminescence, mouse fibroblasts (AID 2010); assay type: functional;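 further: cells exposed to compound for about 90 hours before reading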

| SMILES | EC50 (Streptococcus) | EC50 (Streptokinase A) | EC50 [1] | EC50 [2] | further results |
| --- | --- | --- | --- | --- | --- |
| CC(=O)Nc1nnc(S(=O)(=O)N2CCN(c3ccc([N+](=O)[O-])cc3Cl)CC2)s1 | > 150 µM (not active) | > 150 µM (not active) |  |  |  |
| CCC(C)(C)NC(=O)C(c1cccn1C)N(C(=O)Cn1nnc2ccccc21)c1ccc(OC)cc1 (stereo unspecified) |  |  | > 300 µM (not active) | > 300 µM (not active) |  |
| COc1ccccc1CNC(=O)CSc1nc(=O)n(Cc2ccncc2)c2c1CCC2 | > 150 µM (not active) | > 150 µM (not active) |  |  | EC50 [3]: > 150 µM (not active) |
| CCOc1cc(/C=C(\C#N)c2nc3ccccc3[nH]2)ccc1OC(C)C(=O)O (stereo unspecified) |  |  | 50.5 µM (active) | 78.5 µM (active) |  |
| COc1ccc(OCCOC(=O)c2cccs2)cc1 |  |  |  |  | IC50 (cells): 23.5 µM (active) |
| Cc1ccc(NC(=O)C(=O)NNC(=O)c2ccccc2C)cc1Cl |  |  |  |  | IC50 (cells): 6.8 µM (active) |
| CCOC(=O)COc1ccc2c(c1)C(=O)CC(C)(c1cccnc1)O2 (stereo unspecified) |  |  |  |  | IC50 (cells): 11.2 µM (active) |
| C=CCOc1cccc(C2C(C(=O)c3ccc(C)o3)=C(O)C(=O)N2c2nnc(C)s2)c1 (stereo unspecified) |  |  | 210 µM (active) | > 300 µM (not active) |  |
| CCc1nnc(NS(=O)(=O)c2ccc(NCc3cc(Cl)cc(Cl)c3O)cc2)s1 | > 150 µM (not active) | 50.8 µM (active) |  |  | EC50 [3]: 29.5 µM (active) |
| COc1ccc(C(=O)C2CCCN(C(=O)c3ccc(CSC)o3)C2)cc1F (stereo unspecified) |  |  |  |  | IC50 (cells): 41.5 µM (active) |
| CCOc1ccc(N2C(=O)NC(=O)/C(=C/Nc3ccc(N(CC)CC)cc3)C2=O)cc1 |  |  | 106 µM (active) | 151 µM (active) | EC50 [4]: 10.4 µM (active) |
| N#Cc1cc(NC2CCCC2)c([N+](=O)[O-])cc1C#N |  |  | 41.8 µM (active) | > 300 µM (not active) |  |
| CC1(C)CC(=O)C2=C(C1)OC(N)=C(C#N)C21C(=O)N(CN2CCOCC2)c2ccccc21 (stereo unspecified) |  |  | > 300 µM (not active) | > 300 µM (not active) |  |
| O=[N+]([O-])c1cc(S(=O)(=O)Nc2cccc(Cl)c2)ccc1N=Nc1c(O)[nH]c2ccccc12 | 22.2 µM (active) | 27.4 µM (active) |  |  | EC50 [5]: 1.31 µM (active); EC50 [6]: > 60 µM (not active); EC50 [3]: 1.69 µM (active) |
| COc1cccc(N2C(=O)NC(=O)/C(=C/c3ccc4c(c3)Cc3ccccc3-4)C2=O)c1 |  |  | > 300 µM (not active) | > 300 µM (not active) |  |
| CC1CCCC(/C=N/c2ccc(C(=O)O)c(O)c2)=C1O (stereo unspecified) |  |  |  |  | IC50 (cells): 0.2 µM (active) |
| COc1ccccc1-n1c(O)cc(=O)nc1SCC(=O)Nc1ccc(C)cc1 | 118 µM (active) | > 150 µM (not active) |  |  | EC50 [3]: 29.9 µM (active) |
| COCCOC(=O)c1c(C)nc(SCC(=O)Nc2ccc(C)cc2)c(C#N)c1-c1ccco1 | 53.5 µM (active) | > 150 µM (not active) |  |  |  |
| Brc1cc(-c2ccccc2)nc(-c2ccccc2)n1 | > 150 µM (not active) | > 150 µM (not active) |  |  | EC50 [3]: > 150 µM (not active) |
| CN1C(=O)C(=Cc2cc3ccccc3nc2O)C(=O)N(C)C1=O |  |  | > 300 µM (not active) | > 300 µM (not active) |  |
| O=C(CN1CCC(n2nnc3cc(F)ccc32)CC1)NCCc1ccccc1 |  |  | > 300 µM (not active) | > 300 µM (not active) |  |
| Cc1ccc(/C=N/NC(=O)c2ccncc2)s1 |  |  |  |  | IC50 (cells): 0.96 µM (active) |
| O=S(=O)(Nc1cccc(-c2ccc(N3CCOCC3)nn2)c1)c1ccc(Cl)c(Cl)c1 | 116 µM (active) | 23.5 µM (active) |  |  | EC50 [3]: 12.6 µM (active) |
| COc1ccc(Nc2nc3ccccc3nc2NS(=O)(=O)c2cccs2)c(OC)c1 |  |  | 49.7 µM (inconclusive) | 5.66 µM (active) |  |
